Data set [1] in a line: Incorporation of quercetin in microbial carriers, extraction and absorbance at 388 nm (incorporation yield and efficiency). It is filed as physicochemical. The following applies: cell incorporation process. The method, then:
The phrases “loading efficiency” or “incorporation efficiency” interchangeably refer to the incorporation efficiency on both wet basis determined as follows: IE(%)=CE/CT×100, where CE is the mass of extracted bioactive from the lipid membrane microcapsules after incorporation on a wet basis and CT is the amount of bioactive initially added to the lipid membrane microcapsules. A standard calibration curve was spectrophotometrically obtained for quercetin (QU995 is the food-grade form of quercetin) in dimethyl sulfoxide (DMSO). Incorporation of quercetin in yeast cells with ethanol-buffer mixture was achieved by a non-thermal, vacuum infusion method. Inactivated food-grade yeast cells were used to incorporate quercetin with an initial aim of achieving an incorporation yield or loading percent of 0.5%. The dry yeast cells were first washed with deionized water and an ethanol solution. The washed cells were weighed for use as control (without quercetin) and sample (with quercetin). The incorporation was done in high vacuum conditions and the control and sample were incubated in the dark. […] A 500 μL of supernatant was removed and measured absorbance at 388 nm. […] The problem encountered in a quadruple infusion was crystallization of quercetin around carriers, instead of being incorporated (determined by a multiphoton fluorescence imaging). […]

The nature of data set [2]: pH stability for quercetin in yeast, in L. casei and unincorporated quercetin. Conditions: pH 3, 4, 5, 6 over time; extraction at every time point. It is filed as physicochemical. The method, then:
A comparative pH test at different pH's (3, 4, 5, 6) was done with quercetin incorporated in yeast, in L. casei and un-incorporated quercetin. At every time point, an extraction was done to spectrophotometrically determine the amount of quercetin retained. […] The percent retention is calculated by dividing the absorbance value at each time point with the absorbance value at the initial t=0.

From patent US20200164006A1, “METHODS AND COMPOSITIONS OF INCORPORATING A BIOACTIVE AGENT AND USE THEREOF” (INNOVANUTRA INC., priority 2017, published 2020) come the findings set out here.

In the case of `O=c1c(O)c(-c2ccc(O)c(O)c2)oc2cc(O)cc(O)c12` [quercetin], the “amount of quercetin that can efficiently incorporate into the cells” value in data set [1] is given as 12.517 mg/g. Further, in data set [2], the “pH stability (amount of quercetin retained)” value is on record as “rapid degradation over time”.
